Columns and labels:
HIV-IIIb = assay: Test A: Antiviral assay in MT4 cells; type: cell-based, HIV-1; conditions: Human immunodeficiency virus 1, IIIB, MT4, 120 h, read-out: % inhibition at 2 μM, percent inhibition of virus-induced cell killing, from dose response curve at 2 uM drug; MT-4 cells infected with HIV-IIIb, 5 days, CellTiter-Glo
in vitro = conditions: human, uninfected MT-4 cells, CC50 (nM), same protocol as Test A, CellTiter-Glo
How it was run: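 Cytoprotection read-out: CellTiter-Glo chemiluminescence after 5 days at 37 °C of HIV-IIIb-infected MT-4 cells (m.o.i. 0.003) with compound in 10-point 3-fold dilutions, quadruplicate, 10% FBS. Cytotoxicity (CC50) measured identically without virus.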

Row | SMILES | inhibition at 2 µM (HIV-IIIb) [%] | CC50 at 5 days (in vitro) [nM]
1 | CC1(C)CC(=O)c2c(C(F)(F)F)nn(CC(=O)N[C@@H](Cc3cc(F)cc(F)c3)c3ncccc3-c3ccc(F)c(C(N)=O)c3)c2C1 [Example 369, (S)-5-(2-(2-(3,5-difluorophenyl)-1-(2-(6,6-dimethyl-4-oxo-3-(trifluoromethyl)-4,5,6,7-tetrahydro-1H-indazol-1-yl)acetamido)ethyl)pyridin-3-yl)-2-fluorobenzamide] | 5 | > 53000
2 | NC(=O)c1cc(-c2cccnc2[C@H](Cc2cc(F)cc(F)c2)NC(=O)Cn2nc(C(F)F)c3c2C(=O)CCC3)ccc1F [Example 370, (S)-5-(2-(1-(2-(3-(difluoromethyl)-7-oxo-4,5,6,7-tetrahydro-1H-indazol-1-yl)acetamido)-2-(3,5-difluorophenyl)ethyl)pyridin-3-yl)-2-fluorobenzamide] | 33 | 22700
3 | Nc1ncc(-c2cccnc2[C@H](Cc2cc(F)cc(F)c2)NC(=O)Cn2nc(C(F)F)c3c2C(F)(F)CCC3(F)F)cc1C(F)(F)F [Example 371, (S)—N-(1-(6′-amino-5′-(trifluoromethyl)-3,3′-bipyridin-2-yl)-2-(3,5-difluorophenyl)ethyl)-2-(3-(difluoromethyl)-4,4,7,7-tetrafluoro-4,5,6,7-tetrahydro-1H-indazo-1-yl)acetamide] | 83 | 7590
4 | Cc1c(C#N)c(C(F)(F)F)nn1CC(=O)N[C@@H](Cc1cc(F)cc(F)c1)c1ncccc1-c1ccc(N(C)C)c(C(N)=O)c1 [Example 372, (S)-5-(2-(1-(2-(4-cyano-5-methyl-3-(trifluoromethyl)-1H-pyrazol-1-yl)acetamido)-2-(3,5-difluorophenyl)ethyl)pyridin-3-yl)-2-(dimethylamino)benzamide] | 0 | 24000
5 | COc1ccc2cccc(CC(=O)N[C@@H](Cc3cc(F)cc(F)c3)c3ncccc3-c3ccc(F)c(C#N)c3)c2c1 [Example 373, (S)—N-(1-(3-(3-cyano-4-fluorophenyl)pyridin-2-yl)-2-(3,5-difluorophenyl)ethyl)-2-(7-methoxynaphthalen-1-yl)acetamide] | 0 | 8140
6 | Cc1nc(C(F)(F)F)nn1CC(=O)N[C@@H](Cc1cc(F)cc(F)c1)c1ncccc1-c1ccc(F)c(C(N)=O)c1 [Example 374, (S)-5-(2-(2-(3,5-difluorophenyl)-1-(2-(5-methyl-3-(trifluoromethyl)-1H-1,2,4-triazol-1-yl)acetamido)ethyl)pyridin-3-yl)-2-fluorobenzamide] | 5 | > 53200
7 | Nc1ccc(-c2cccnc2[C@H](Cc2cc(F)cc(F)c2)NC(=O)Cn2nc(C(F)F)c3c2C(F)(F)CCC3(F)F)cn1 [Example 375, (S)—N-(1-(6′-amino-3,3′-bipyridin-2-yl)-2-(3,5-difluorophenyl)ethyl)-2-(3-(difluoromethyl)-4,4,7,7-tetrafluoro-4,5,6,7-tetrahydro-1H-indazol-1-yl)acetamide] | 98 | 15200
8 | Cc1c(C#N)c(C(F)(F)F)nn1CC(=O)N[C@@H](Cc1cc(F)cc(F)c1)c1ncccc1-c1ccc(F)c(C(N)=O)c1 [Example 376, (S)-5-(2-(1-(2-(4-cyano-5-methyl-3-(trifluoromethyl)-1H-pyrazol-1-yl)acetamido)-2-(3,5-difluorophenyl)ethyl)pyridin-3-yl)-2-fluorobenzamide] | 2 | 29100
9 | N#Cc1cc(-c2cccnc2[C@H](Cc2cc(F)cc(F)c2)NC(=O)Cc2c[nH]c3ccc(F)cc23)ccn1 [Example 377, (S)—N-(1-(2′-cyano-3,4′-bipyridin-2-yl)-2-(3,5-difluorophenyl)ethyl)-2-(5-fluoro-1H-indol-3-yl)acetamide] | 22 | 18600
10 | CC(C)(C)OC(=O)N1CCc2c(C(F)(F)F)nn(CC(=O)N[C@@H](Cc3cc(F)cc(F)c3)c3ncccc3-c3ccc(F)c(C(N)=O)c3)c2C1 [Example 378, (S)-tert-butyl 1-(2-(1-(3-(3-carbamoyl-4-fluorophenyl)pyridin-2-yl)-2-(3,5-difluorophenyl)ethylamino)-2-oxoethyl)-3-(trifluoromethyl)-4,5-dihydro-1H-pyrazolo[3,4-c]pyridine-6(7H)-carboxylate] | 5 | 17100
11 | O=C(Cn1nc(C(F)(F)F)c2c1C1CC1CC2)N[C@@H](Cc1cc(F)cc(F)c1)c1ncccc1-c1cnc2[nH]ccc2c1 (stereo partly drawn) [Example 379, N—((S)-1-(3-(1H-pyrrolo[2,3-b]pyridin-5-yl)pyridin-2-yl)-2-(3,5-difluorophenyl)ethyl)-2-(3-(trifluoromethyl)-5,5a,6,6a-tetrahydrocyclopropa[g]indazol-1(4H)-yl)acetamide] | 112 | 9240
12 | NC(=O)c1cc(-c2cccnc2[C@H](Cc2cc(F)cc(F)c2)NC(=O)Cn2nc(C(F)F)c3c2C(F)(F)CCC3)ccc1F [Example 380, (S)-5-(2-(1-(2-(3-(difluoromethyl)-7,7-difluoro-4,5,6,7-tetrahydro-1H-indazol-1-yl)acetamido)-2-(3,5-difluorophenyl)ethyl)pyridin-3-yl)-2-fluorobenzamide] | 97 | 18300
13 | NC(=O)c1cc(-c2cccnc2[C@H](Cc2cc(F)cc(F)c2)NC(=O)Cn2nc3c(c2C(F)(F)F)C(F)(F)C2CC32)ccc1F (stereo partly drawn) [Example 381, 5-(2-((1S)-1-(2-(4,4-difluoro-3-(trifluoromethyl)-4,4-a,5,5a-tetrahydro-2H-cyclopropa[4,5]cyclopenta[1,2-c]pyrazol-2-yl)acetamido)-2-(3,5-difluorophenyl)ethyl)pyridin-3-yl)-2-fluorobenzamide] | 1 | 24900
14 | NC(=O)c1cccc(-c2cccnc2[C@H](Cc2cc(F)cc(F)c2)NC(=O)Cn2cnc3c2CCCC3)c1 [Example 382, (S)-3-(2-(2-(3,5-difluorophenyl)-1-(2-(4,5,6,7-tetrahydro-1H-benzo[d]imidazol-1-yl)acetamido)ethyl)pyridin-3-yl)benzamide] | 85 | > 39900
15 | O=C(Cn1nc(C(F)(F)F)c2c1CCCC2)N[C@H](Cc1cc(F)cc(F)c1)c1ncncc1-c1ccc(Cl)cc1 [Example 383, (R)—N-(1-(5-(4-chlorophenyl)pyrimidin-4-yl)-2-(3,5-difluorophenyl)ethyl)-2-(3-(trifluoromethyl)-4,5,6,7-tetrahydro-1H-indazol-1-yl)acetamide] | 32 | 15500
16 | NC(=O)c1cc(-c2cccnc2[C@H](Cc2cc(F)cc(F)c2)NC(=O)Cn2nc(C(F)F)c3c2C(O)CCC3)ccc1F (stereo partly drawn) [Example 384, 5-(2-((1S)-1-(2-(3-(difluoromethyl)-7-hydroxy-4,5,6,7-tetrahydro-1H-indazol-1-yl)acetamido)-2-(3,5-difluorophenyl)ethyl)pyridin-3-yl)-2-fluorobenzamide] | 97 | > 53200
17 | Cc1cc(C(F)(F)F)nn1CC(=O)N[C@@H](Cc1cc(F)cc(F)c1)c1ncccc1-c1ccc(F)c(C(N)=O)c1 [Example 385, (S)-5-(2-(2-(3,5-difluorophenyl)-1-(2-(5-methyl-3-(trifluoromethyl)-1H-pyrazol-1-yl)acetamido)ethyl)pyridin-3-yl)-2-fluorobenzamide] | 40 | > 53200
